Reference: ChEMBL document CHEMBL5543153, “Discovery of a Potent Dual Son of Sevenless 1 (SOS1) and Epidermal Growth Factor Receptor (EGFR) Inhibitor for the Treatment of Prostate Cancer” (J Med Chem, 2024)
Calls of active or inactive are those of the source. No cut-off for these calls is given here.

Columns and labels:
[1] = biological target: Epidermal growth factor receptor (Homo sapiens, UniProt P00533); assay: Inhibition of EGFR (unknown origin) using ultra ULight GT peptide as substrate at 10 uM incubated for 2 hrs relative to control
HepG2 = assay: Antiproliferative activity against human HepG2 cells assessed as inhibition of cell growth incubated for 72 hrs by MTT assay; format: functional, cell-based
PC-3 [2] = assay: cells; format: functional, cell-based; settings: Homo sapiens, PC-3, 72 h
Description: Antiproliferative activity against human PC-3 cells assessed as inhibition of cell growth incubated for 72 hrs by MTT assay

[3] = Antiproliferative activity against human RWPE-1 cells assessed as inhibition of cell growth incubated for 72 hrs by MTT assay; format: toxicity, cell-based
NCI-H358 = assay: Antiproliferative activity against human NCI-H358 cells harboring KRAS G12C mutant assessed as inhibition of cell growth incubated for 72 hrs by MTT assay; format: functional, cell-based; settings: NCI-H358, 72 h
A-427 = assay: Antiproliferative activity against human A-427 cells harboring KRAS G12D mutant assessed as inhibition of cell growth incubated for 72 hrs by MTT assay; format: functional, cell-based; settings: A-427, 72 h
[4] = biological target: T1, Son of sevenless homolog 1 (Homo sapiens) (UniProt Q07889); assay: Inhibition of SOS1 in human PC-3 cells assessed as downregulation of AKT phosphorylation at 0.5 uM incubated for 15 mins by Western blotting analysis; format: cell-based
T1 sequence (whole entry): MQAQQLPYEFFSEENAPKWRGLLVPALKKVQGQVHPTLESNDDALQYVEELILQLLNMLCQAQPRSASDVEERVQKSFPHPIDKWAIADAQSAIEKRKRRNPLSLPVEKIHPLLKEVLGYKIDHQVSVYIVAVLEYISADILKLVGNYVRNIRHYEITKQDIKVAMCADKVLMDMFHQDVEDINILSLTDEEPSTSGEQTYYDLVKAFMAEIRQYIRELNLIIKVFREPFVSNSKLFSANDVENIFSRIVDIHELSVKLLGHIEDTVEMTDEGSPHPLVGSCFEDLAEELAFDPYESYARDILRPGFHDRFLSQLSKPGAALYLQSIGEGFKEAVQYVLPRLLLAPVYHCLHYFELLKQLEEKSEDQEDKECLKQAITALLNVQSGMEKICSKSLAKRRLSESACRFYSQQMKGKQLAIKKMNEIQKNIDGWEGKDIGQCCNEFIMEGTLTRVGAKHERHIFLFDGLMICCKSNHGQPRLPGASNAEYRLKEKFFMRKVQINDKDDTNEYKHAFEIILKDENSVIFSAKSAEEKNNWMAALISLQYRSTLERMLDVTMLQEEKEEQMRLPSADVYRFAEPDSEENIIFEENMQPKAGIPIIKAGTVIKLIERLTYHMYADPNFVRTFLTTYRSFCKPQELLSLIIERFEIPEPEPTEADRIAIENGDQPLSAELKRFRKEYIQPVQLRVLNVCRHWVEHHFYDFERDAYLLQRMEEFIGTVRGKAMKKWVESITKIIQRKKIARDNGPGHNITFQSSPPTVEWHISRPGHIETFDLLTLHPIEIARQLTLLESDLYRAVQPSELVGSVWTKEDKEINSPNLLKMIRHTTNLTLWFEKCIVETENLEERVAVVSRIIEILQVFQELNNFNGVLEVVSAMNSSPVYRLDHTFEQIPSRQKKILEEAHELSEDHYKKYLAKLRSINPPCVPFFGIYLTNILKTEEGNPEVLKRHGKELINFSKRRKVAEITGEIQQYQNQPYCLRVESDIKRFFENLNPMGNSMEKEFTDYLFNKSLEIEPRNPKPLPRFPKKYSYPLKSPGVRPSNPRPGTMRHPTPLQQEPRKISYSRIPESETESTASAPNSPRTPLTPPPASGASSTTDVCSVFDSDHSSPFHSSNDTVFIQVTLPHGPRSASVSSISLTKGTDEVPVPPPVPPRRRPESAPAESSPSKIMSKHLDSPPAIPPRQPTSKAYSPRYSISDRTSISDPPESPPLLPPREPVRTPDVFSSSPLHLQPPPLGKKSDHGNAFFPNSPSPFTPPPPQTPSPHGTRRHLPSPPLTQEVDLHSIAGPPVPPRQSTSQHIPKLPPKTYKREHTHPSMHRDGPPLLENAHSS

[5] = biological target: T1, Son of sevenless homolog 1 (Homo sapiens); assay: Inhibition of SOS1 in human PC-3 cells assessed as downregulation of ERK phosphorylation at 12.5 uM incubated for 15 mins by Western blotting analysis; format: cell-based
PC-3 [6] = assay: Induction of apoptosis in human PC-3 cells assessed as early apoptotic cells at 2.5 uM by Annexin V-FITC staining based flow cytometry (reference value: 2.64%); format: functional
PC-3 [7] = assay: Induction of apoptosis in human PC-3 cells assessed as early apoptotic cells at 12.5 uM by Annexin V-FITC staining based flow cytometry (reference value: 2.64%); format: functional
PC-3 [8] = assay: Induction of cell cycle arrest in human PC-3 cells assessed as accumulation of cells at G1 phase at 0.5 uM by PI staining based flow cytometry (reference value: 75.66%); format: functional
PC-3 [9] = assay: Induction of cell cycle arrest in human PC-3 cells assessed as accumulation of cells at G2 phase at 12.5 uM by PI staining based flow cytometry (reference value: 7.75%); format: functional
PC-3 [10] = assay: Induction of cell cycle arrest in human PC-3 cells assessed as downregulation of CDK4 expression by Western blotting analysis; format: functional, cell-based
HUVEC [11] = assay: Antiangiogenic activity in HUVEC cells assessed as reduction in tube formation at 0.5 to 12.5 uM incubated for 8 hrs by matrigel based microscopic analysis; format: functional, cell-based; settings: Homo sapiens, dose 0.5-12.5 µM
HUVEC [12] = assay: Inhibition of cell migration in HUVEC cells assessed as reduction in migration index measured after 48 hrs by wound healing assay; format: functional, cell-based; settings: Homo sapiens
HUVEC [13] = assay: Inhibition of cell migration in HUVEC cells assessed as reduction in invasion index at 0.5 to 12.5 uM measured after 48 hrs by crystal violet staining based transwell invasion assay; format: functional; settings: Homo sapiens, dose 0.5-12.5 µM
PC-3 [14] = assay: Antitumor activity against human PC-3 cells xenografted in BALB/c mouse assessed as reduction in tumor volume at 20 mg/kg,ip administrated once every 4 days for 24 days; format: functional, organism-based; settings: time 24.0 day
PC-3 [15] = assay: Antitumor activity against human PC-3 cells xenografted in BALB/c mouse assessed as reduction in tumor weight at 20 mg/kg,ip administrated once every 4 days for 24 days; format: functional, organism-based; settings: time 24.0 day
[16] = Toxicity in BALB/c mouse xenografted with human PC-3 cells assessed as change in body weight at 5 mg/kg,ip administrated once every 4 days for 24 days; format: organism-based; settings: in vivo, 576 h, time 24 day
[17] = Toxicity in BALB/c mouse xenografted with human PC-3 cells assessed as liver pathological change at 5 mg/kg,ip administrated once every 4 days for 24 days by hematoxylin and eosin staining based analysis; format: organism-based; settings: in vivo, 576 h, time 24 day
[18] = Toxicity in BALB/c mouse xenografted with human PC-3 cells assessed as change in AST level at 20 mg/kg,ip administrated once every 4 days for 24 days by automatic biochemical analyzer; format: organism-based; settings: in vivo, 576 h, time 24 day
[19] = Toxicity in BALB/c mouse xenografted with human PC-3 cells assessed as change in blood urea nitrogen level at 5 mg/kg,ip administrated once every 4 days for 24 days by automatic biochemical analyzer; format: organism-based; settings: in vivo, 576 h, time 24 day

Epidermal growth factor receptor, sequence (P00533 whole entry): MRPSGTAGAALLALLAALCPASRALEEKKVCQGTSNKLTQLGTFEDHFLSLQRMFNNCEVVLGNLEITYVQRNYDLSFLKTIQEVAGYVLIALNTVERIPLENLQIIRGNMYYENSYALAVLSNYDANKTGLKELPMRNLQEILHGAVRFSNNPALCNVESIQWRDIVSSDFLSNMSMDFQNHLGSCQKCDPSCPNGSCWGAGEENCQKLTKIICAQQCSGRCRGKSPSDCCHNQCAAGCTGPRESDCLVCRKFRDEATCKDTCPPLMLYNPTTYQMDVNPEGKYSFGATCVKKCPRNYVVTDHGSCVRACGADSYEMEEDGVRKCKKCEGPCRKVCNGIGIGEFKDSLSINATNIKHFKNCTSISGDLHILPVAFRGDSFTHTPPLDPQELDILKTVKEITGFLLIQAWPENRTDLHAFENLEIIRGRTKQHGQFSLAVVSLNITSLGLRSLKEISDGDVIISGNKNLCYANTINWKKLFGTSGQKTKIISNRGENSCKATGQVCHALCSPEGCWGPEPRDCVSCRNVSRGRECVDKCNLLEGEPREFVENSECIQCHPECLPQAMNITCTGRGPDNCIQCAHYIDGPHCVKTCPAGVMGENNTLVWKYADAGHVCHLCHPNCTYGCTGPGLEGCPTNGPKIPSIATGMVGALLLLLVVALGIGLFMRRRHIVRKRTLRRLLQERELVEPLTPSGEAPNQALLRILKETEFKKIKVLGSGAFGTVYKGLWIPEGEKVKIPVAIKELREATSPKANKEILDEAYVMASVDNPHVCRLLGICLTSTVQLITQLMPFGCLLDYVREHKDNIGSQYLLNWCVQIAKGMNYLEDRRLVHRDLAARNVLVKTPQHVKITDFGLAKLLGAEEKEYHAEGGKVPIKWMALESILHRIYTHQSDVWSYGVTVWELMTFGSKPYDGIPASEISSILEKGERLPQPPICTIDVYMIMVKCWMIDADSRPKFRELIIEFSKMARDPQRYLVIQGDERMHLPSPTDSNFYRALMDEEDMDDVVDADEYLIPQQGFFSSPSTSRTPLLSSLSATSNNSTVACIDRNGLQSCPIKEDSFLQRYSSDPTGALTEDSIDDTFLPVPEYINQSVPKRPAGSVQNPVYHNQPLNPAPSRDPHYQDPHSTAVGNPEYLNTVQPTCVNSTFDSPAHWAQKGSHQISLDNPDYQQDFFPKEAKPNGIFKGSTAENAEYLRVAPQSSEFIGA

In the case of COc1cc2ncnc(N[C@H](C)c3cccc(F)c3)c2cc1OC1CCOCC1, the inhibition [1] is reported as 100%, the Activity (HepG2) is reported as “Active” and the IC50 (PC-3 [2]) is reported as 450 nM. The IC50 at 72 h [3] was > 10000 nM, the IC50 (NCI-H358) was 550 nM and the IC50 (A-427) was 550 nM. The inhibition [4] was “Active”, the inhibition [5] was “Active” and the Activity (PC-3 [6]) was 17%. The Activity (PC-3 [7]) was 21.5%, the Activity (PC-3 [8]) was 79.45% and the Activity (PC-3 [9]) was 5.95%. For the same molecule, the Activity (PC-3 [10]) was “Dose-Dependent Effect”, the Activity (HUVEC [11]) was “Active” and the inhibition (HUVEC [12]) was “Dose-Dependent Effect”. The inhibition (HUVEC [13]) was “Active”, the Activity (PC-3 [14]) was “Active” and the Activity (PC-3 [15]) was “Active”. For the same molecule, the Activity [16] was “Toxic”, the Activity [17] was “Toxic” and the Activity [18] was “Non-Toxic”. The Activity [19] was “Non-Toxic”.
